Measured values taken from ChEMBL document CHEMBL1158032, “Manaarenolides A-I, diterpenoids from the soft coral Sinularia manaarensis” (J Nat Prod, 2006).
Converted amounts (≈) assume the structure as drawn.

Assays:
[1] = Cytotoxicity against human Hepa59T/VGH cells by MTT assay; type: functional; conditions: HEPA 59T/VGH, read-out: ED50 (the source's name)
[2] = system: KB; assay: Cytotoxicity against human KB cells by MTT assay; type: functional; conditions: read-out: ED50 (the source's name)
[3] = Cytotoxicity against human Med cells by MTT assay; type: cell-based; conditions: read-out: ED50 (the source's name)
[4] = system: HeLa; assay: Cytotoxicity against human HeLa cells by MTT assay; type: functional; conditions: read-out: ED50 (the source's name)

Question: Which results are given for C=C1C(=O)O[C@@H]2C[C@H]1C/C=C(\C)[C@@H](O)CC/C(C)=C/CC[C@]2(C)O [MANAARENOLIDE G]?
Answer: EC50 [1]: 7.2 µg/mL (≈ 21.5 µM); EC50 [2]: 8.7 µg/mL (≈ 26 µM); CC50 [3]: 13.4 µg/mL (≈ 40.1 µM); EC50 [4]: 10.9 µg/mL (≈ 32.6 µM)

Question: With C=C1C(=O)O[C@@H]2C[C@H]1C/C=C(/C)[C@@H](O)CC/C(C)=C/CC[C@]2(C)O [MANAARENOLIDE H] as the compound, how does the EC50 [1] read?
Answer: 7.4 µg/mL (≈ 22.1 µM)

Question: What about the EC50 [2] of the same compound?
Answer: 7.6 µg/mL (≈ 22.7 µM)

Question: What about the CC50 [3] of the same compound?
Answer: 5.8 µg/mL (≈ 17.3 µM)

Question: And the EC50 [4]?
Answer: 9.3 µg/mL (≈ 27.8 µM)
